Experiments:
[1] = test system: activated monocyte cell line (THP-1); assay: Cytotoxicity CC50, differentiated THP-1, Alamar Blue; type: cell-based, human; settings: differentiated THP-1, 48 h; read-out: THP1 CC50
Description: The four lanosterone-like sterols derived from the Noble Fir Abies procera (700022, 700107, 700136) and the Grand Fir Abies grandis (700240) were the only initial compounds taken forward for L. mexicana due to their nanomolar activity and apparent low cytotoxicity (Figure 3a). […] Understanding the impact of the ring-opened lactone head group in this compound compared to the other three warrants further analysis in exploring their structure-activity relationships. These four sterols were also tested for growth inhibitory activity against L. donovani axenic amastigotes. […] As Leishmania spp. amastigotes typically reside with macrophages, further cytotoxicity assays with these sterols were performed against an activated monocyte cell line (THP-1) (Figure 4b). […]

[2] = test system: T. brucei bloodstream form; assay: Initial screen, T. brucei bloodstream form, Alamar Blue; type: cell-based, Trypanosoma brucei brucei
How it was run: (§1)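 Bloodstream-form T. evansi Antat 3/3 and T. brucei Lister 427 were grown in HMI-11 with 10% FBS at 37 °C. Parasites were plated at 1×10^5 cells/mL with compound at 1 μM (T. evansi) or 2 μM (T. brucei) for 48 h, and growth was read by Alamar Blue relative to 1% DMSO controls (n = 6).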

[3] = test system: L. mexicana axenic amastigotes; assay: Concentration-response EC50, L. mexicana axenic amastigotes (WT); type: cell-based, Leishmania mexicana; settings: read-out: L. mexicana EC50; axenic amastigotes, 72 h
Description: (§2) Initial hits from the parasite panel screen were taken forward in log concentration versus normalised response assays to estimate the half maximal effective concentration (EC50) in hit species as well as the half maximal cytotoxic concentrations (CC50) in the human hepatoma cell line HepG2 as a preliminary test for selectivity. Using CC50/EC50 to define the selectivity index (SI), the selectivity for each compound in a defined species compared to a human cell line was estimated and compared to the EC50 (Figure 3).
(§3) EC50 values were determined by serial two-fold dilution of each compound in 96 well plates. Culture conditions and viability assays were as stated for the initial screen, with some exceptions. L. mexicana and L. donovani axenic amastigotes were seeded at 2 × 10^6 cell/s mL, T. brucei and T. evansi were seeded at 2 × 10^5 cells/mL. For cytotoxicity studies, HepG2 cells were seeded at 1 × 10^5 cells/mL, incubated for 48 h and viability was assessed using the Alamar Blue assay [66, 67]. […] Normalised growth and viability data (compared to untreated controls) were plotted against Log10 concentration to estimate EC50 in GraphPad (Prism v6).

T. brucei = assay: Concentration-response EC50, T. brucei; type: cell-based, Trypanosoma brucei brucei; settings: read-out: T. brucei EC50; bloodstream form, 48 h
Description: as §2, §3

[4] = test system: T. evansi bloodstream form; assay: Initial screen, T. evansi bloodstream form, Alamar Blue; type: cell-based, Trypanosoma evansi; settings: initial screen; compared to a normalised control with same concentration of DMSO solvent
How it was run: as §1

HepG2 cells [5] = assay: Cytotoxicity CC50, HepG2, Alamar Blue; settings: read-out: HepG2 CC50; 48 h
How it was run: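 Human hepatoma cells seeded at 1 × 10^5 cells/mL with two-fold serial compound dilutions, incubated 48 h at 37 °C, 5% CO2 in DMEM/10% FBS. Viability read by Alamar Blue. CC50 estimated from viability normalised to untreated controls versus log concentration.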

[6] = test system: L. mexicana axenic amastigotes; assay: Initial screen, L. mexicana axenic amastigotes, Alamar Blue; type: cell-based, Leishmania mexicana
How it was run: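 Purified temperate plant natural products from a commercial library (1 mg/mL in DMSO) were tested against Leishmania mexicana axenic amastigotes at a final 2 μM. Parasites were seeded at 1 × 10^6 cells/mL in 96-well plates containing 200 μL culture and incubated 72 h. Growth was measured by Alamar Blue and normalised to DMSO controls (1% v/v), with triplicates over two biological replicates (n = 6).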

[7] = test system: P. falciparum Dd2Luc intraerythrocytic trophozoites; assay: Initial screen, intraerythrocytic P. falciparum, Malaria SYBR-Green I fluorescence assay; type: cell-based, Plasmodium falciparum; settings: Plasmodium falciparum, 48 h, read-out: mean % growth, P. falciparum, initial screen; compared to a normalised control with same concentration of DMSO solvent
How it was run: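 L. mexicana axenic amastigotes at 1 × 10^6 cells/mL exposed 72 h to compounds at 2 μM, growth read by Alamar Blue; P. falciparum trophozoites at 0.5% parasitaemia, 2% haematocrit, 48 h at 2 μM, SYBR-Green I read-out. Growth normalised to 1% DMSO; hits ≥50% growth reduction.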

HepG2 cells [8] = test system: HepG2 cells; set-up: method as in PMID 31617221; settings: cited from earlier work
P. falciparum Dd2Luc = test system: P. falciparum Dd2Luc; set-up: method as in PMID 27999014; settings: control compounds; cited from earlier work
[9] = test system: P. falciparum NF54 strain; set-up: method as in PMID 29896963; settings: drug sensitive NF54 strain; cited from earlier work
T. b. rhodesiense = test system: T. b. rhodesiense; set-up: method as in PMID 29896963; settings: cited from earlier work
[10] = initial screen, compared to a normalised control with same concentration of DMSO solvent

## C=C1C(=O)OC2CC(C)C3C=CC(=O)C3(C)C(OC(C)=O)C12 (centres unmarked) [Compound 701154]
[1]
  CC50: 1500 nM
[2]; 2 μM, growth reduced by ≥50%
  initial hit against T. brucei: initial hits
[2]; Trypanosoma brucei, read-out: initial hit T.b
  inhibition of growth at 2 µM: > 50%
[2]; [10]
  mean % growth, T. b. brucei: 14.7%
[3]
  EC50: 950 nM
T. brucei
  EC50: 1600 nM
[4]
  mean % growth, T. evansi: 79.8%
HepG2 cells [5]
  CC50: 4200 nM
[6]; 2 μM, growth inhibited by ≥80%
  initial hit against L. mexicana: initial hits
[6]; Leishmania mexicana, read-out: initial hit L.m
  inhibition of growth at 2 µM: > 80%
[6]; [10]
  mean % growth, L. mexicana: -0.64%
[7]
  activity at 2 µM: 66.5%

## COc1cc(C[C@H]2C(=O)OC[C@@H]2Cc2ccc(OC)c(OC)c2)ccc1O [arctigenin]
HepG2 cells [8]
  antiproliferative activity against HepG2 cells: potent antiproliferative activity

## O=C1C(O)=C([C@H]2CC[C@H](c3ccc(Cl)cc3)CC2)C(=O)c2ccccc21 [atovaquone]
P. falciparum Dd2Luc
  rate of kill of control antimalarials: slow killing compound with 48 h lag in action

## C[C@H]1[C@@H](O)O[C@@H]2O[C@@]3(C)CC[C@H]4[C@H](C)CC[C@@H]1[C@@]24OO3 [dihydroartemisinin]
P. falciparum Dd2Luc
  rate of kill of control antimalarials: rapid initial rate of kill with no lag in action

## CC(C)c1cc(CC[C@@H]2C(=O)CCCC2(C)C)c(O)cc1O [leriifoliol]
[9]
  activity against P. falciparum: submicromolar activity
T. b. rhodesiense
  activity against T. b. rhodesiense: micromolar activity

From PMC7998250, “Temperate Zone Plant Natural Products—A Novel Resource for Activity against Tropical Parasitic Diseases” (Pharmaceuticals, 2021)
